Test results from ChEMBL document CHEMBL1201862, “PubChem BioAssay data set” (2004).
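Cultured in 96-well plates, cells were exposed to test compound for 48 hours across five concentrations. GI50: concentration for 50% inhibition of growth.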 Calls of active or inactive are those of the source. Rule as the data show it: active = GI50 up to about 1.1 µM and inactive = higher.

Key:
Assay in all cases: NCI-60 cell line screen, 48 h
[1] = system: HOP-92
[2] = system: SN12C
[3] = system: HT-29
[4] = system: MOLT-4
[5] = system: T47D
[6] = system: OVCAR-5
[7] = system: HCC 2998
[8] = system: NCI-H226
[9] = system: HCT-116
[10] = system: ACHN
[11] = system: DU-145
[12] = system: NCI/ADR-RES
[13] = system: SF-539
[14] = system: CAKI-1
[15] = system: SNB-19
[16] = system: UACC-62
[17] = system: M14
[18] = system: IGROV-1
[19] = system: HOP-62
[20] = system: OVCAR-8
[21] = system: 786-0
[22] = system: Malme-3M
[23] = system: RXF 393
[24] = system: A549
[25] = system: U-251
[26] = system: BT-549
[27] = system: LOX IMVI
[28] = system: SNB-75
[29] = system: NCI-H522
[30] = system: UO-31
[31] = system: SF-268
[32] = system: SW-620
[33] = system: SK-MEL-28
[34] = system: SR
[35] = system: MDA-N
[36] = system: SK-MEL-5
[37] = system: NCI-H460
[38] = system: TK-10
[39] = system: SK-MEL-2
[40] = system: A498
[41] = system: SK-OV-3
[42] = system: SF-295
[43] = system: NCI-H23
[44] = system: UACC-257
[45] = system: MCF7
[46] = system: MDA-MB-435
[47] = system: KM12
[48] = system: EKVX
[49] = system: PC-3
[50] = system: K562
[51] = system: COLO 205
[52] = system: OVCAR-3
[53] = system: MDA-MB-231
[54] = system: HCT-15
[55] = system: OVCAR-4
[56] = system: HL-60
[57] = system: RPMI-8226
[58] = system: CCRF-CEM
[59] = system: Hs-578T

For CCOP(=O)(OCC)/C(C#N)=C/c1cccn1CC(C)C, the GI50 [1] was > 100 µM (inactive), the GI50 [2] was > 100 µM (inactive) and the GI50 [3] was > 100 µM (inactive). The GI50 [4] was 52.5 µM (inactive), the GI50 [5] was 36.6 µM (inactive) and the GI50 [6] was > 100 µM (inactive). For the same compound, the GI50 [7] was > 100 µM (inactive), the GI50 [8] was 35.7 µM (inactive) and the GI50 [9] was > 100 µM (inactive). For the same compound, the GI50 [10] was > 100 µM (inactive), the GI50 [11] was > 100 µM (inactive) and the GI50 [12] was > 100 µM (inactive). The GI50 [13] was > 100 µM (inactive), the GI50 [14] was > 100 µM (inactive) and the GI50 [15] was > 100 µM (inactive). For the same compound, the GI50 [16] was > 100 µM (inactive), the GI50 [17] was > 100 µM (inactive) and the GI50 [18] was > 100 µM (inactive). The GI50 [19] was > 100 µM (inactive), the GI50 [20] was > 100 µM (inactive) and the GI50 [21] was > 100 µM (inactive). The GI50 [22] was > 100 µM (inactive), the GI50 [23] was > 100 µM (inactive) and the GI50 [24] was > 100 µM (inactive). For the same compound, the GI50 [25] was > 100 µM (inactive), the GI50 [26] was > 100 µM (inactive) and the GI50 [27] was > 100 µM (inactive). The GI50 [28] was > 100 µM (inactive), the GI50 [29] was 81.8 µM (inactive) and the GI50 [30] was 61.4 µM (inactive). The GI50 [31] was > 100 µM (inactive), the GI50 [32] was > 100 µM (inactive) and the GI50 [33] was > 100 µM (inactive). The GI50 [34] was > 100 µM (inactive), the GI50 [35] was > 100 µM (inactive) and the GI50 [36] was 40.9 µM (inactive). The GI50 [37] was > 100 µM (inactive), the GI50 [38] was > 100 µM (inactive) and the GI50 [39] was > 100 µM (inactive). For the same compound, the GI50 [40] was > 100 µM (inactive), the GI50 [41] was > 100 µM (inactive) and the GI50 [42] was > 100 µM (inactive). The GI50 [43] was > 100 µM (inactive), the GI50 [44] was > 100 µM (inactive) and the GI50 [45] was > 100 µM (inactive). The GI50 [46] was > 100 µM (inactive), the GI50 [47] was 89.9 µM (inactive) and the GI50 [48] was > 100 µM (inactive). The GI50 [49] was 93.3 µM (inactive), the GI50 [50] was 39.9 µM (inactive) and the GI50 [51] was > 100 µM (inactive). The GI50 [52] was > 100 µM (inactive), the GI50 [53] was 57.3 µM (inactive) and the GI50 [54] was > 100 µM.

For O=C1CCCC/C1=C(\Br)I, the GI50 [1] was 17.9 µM (inactive), the GI50 [2] was 16.9 µM (inactive) and the GI50 [3] was 12.9 µM (inactive). For the same compound, the GI50 [4] was 2.11 µM (inactive), the GI50 [5] was 7 µM (inactive) and the GI50 [6] was 18.8 µM (inactive). The GI50 [7] was 4.95 µM (inactive), the GI50 [8] was 23.4 µM (inactive) and the GI50 [9] was 12 µM (inactive). The GI50 [55] was 15.4 µM (inactive), the GI50 [10] was 16.1 µM (inactive) and the GI50 [11] was 16 µM (inactive). The GI50 [12] was 19 µM (inactive), the GI50 [13] was 18.8 µM (inactive) and the GI50 [14] was 12.4 µM (inactive). The GI50 [15] was 20.7 µM (inactive), the GI50 [16] was 15.5 µM (inactive) and the GI50 [17] was 6.78 µM (inactive). For the same compound, the GI50 [18] was 9.38 µM (inactive), the GI50 [19] was 19.2 µM (inactive) and the GI50 [20] was 14.5 µM (inactive). The GI50 [21] was 19.6 µM (inactive), the GI50 [22] was 5.5 µM (inactive) and the GI50 [23] was 15.6 µM (inactive). The GI50 [24] was 23.3 µM (inactive), the GI50 [25] was 18 µM (inactive) and the GI50 [26] was 17.6 µM (inactive). The GI50 [27] was 16.7 µM (inactive), the GI50 [28] was 16.9 µM (inactive) and the GI50 [29] was 1.56 µM (inactive). The GI50 [30] was 17.7 µM (inactive), the GI50 [56] was 2.12 µM (inactive) and the GI50 [57] was 2.86 µM (inactive). For the same compound, the GI50 [31] was 9.62 µM (inactive), the GI50 [32] was 3.39 µM (inactive) and the GI50 [33] was 15.7 µM (inactive). The GI50 [34] was 2.67 µM (inactive), the GI50 [36] was 17.9 µM (inactive) and the GI50 [37] was 15.3 µM (inactive). For the same compound, the GI50 [58] was 1.77 µM (inactive), the GI50 [38] was 13.9 µM (inactive) and the GI50 [39] was 22.3 µM (inactive). The GI50 [40] was 19.4 µM (inactive), the GI50 [41] was 22 µM (inactive) and the GI50 [42] was 17.5 µM (inactive). The GI50 [43] was 10.1 µM (inactive), the GI50 [44] was 16.6 µM (inactive) and the GI50 [45] was 12.8 µM (inactive). The GI50 [46] was 15.1 µM (inactive), the GI50 [47] was 17.1 µM (inactive) and the GI50 [48] was 18.7 µM (inactive). For the same compound, the GI50 [49] was 17.3 µM (inactive), the GI50 [50] was 2.69 µM (inactive) and the GI50 [51] was 15.1 µM (inactive). For the same compound, the GI50 [52] was 18 µM (inactive), the GI50 [53] was 17.6 µM (inactive) and the GI50 [59] was 35.4 µM (inactive). The GI50 [54] was 3.4 µM.

In the case of CC(C)(C)O/C=C1/C(=O)OC2C[C@@H](O[Si](C)(C)C(C)(C)C)CC12 (stereo partly drawn), the GI50 [1] is reported as 43.7 µM (inactive), the GI50 [2] is reported as 34.7 µM (inactive) and the GI50 [3] is reported as 68.1 µM (inactive). The GI50 [5] was 23.3 µM (inactive), the GI50 [6] was > 100 µM (inactive) and the GI50 [7] was > 100 µM (inactive). For the same compound, the GI50 [8] was 92.7 µM (inactive), the GI50 [9] was 37.1 µM (inactive) and the GI50 [55] was 74 µM (inactive). For the same compound, the GI50 [10] was 72.6 µM (inactive), the GI50 [11] was 29.4 µM (inactive) and the GI50 [12] was 55.1 µM (inactive). The GI50 [14] was > 100 µM (inactive), the GI50 [15] was 94.2 µM (inactive) and the GI50 [17] was 54.6 µM (inactive). The GI50 [18] was 72.6 µM (inactive), the GI50 [19] was > 100 µM (inactive) and the GI50 [20] was 48.1 µM (inactive). The GI50 [21] was > 100 µM (inactive), the GI50 [22] was 98.9 µM (inactive) and the GI50 [23] was 0.759 µM (active). The GI50 [24] was 58.9 µM (inactive), the GI50 [25] was 48 µM (inactive) and the GI50 [26] was 56.5 µM (inactive). The GI50 [27] was 36.6 µM (inactive), the GI50 [28] was 16.8 µM (inactive) and the GI50 [29] was 27.6 µM (inactive). For the same compound, the GI50 [30] was 52.2 µM (inactive), the GI50 [31] was 80.9 µM (inactive) and the GI50 [32] was 54.3 µM (inactive). For the same compound, the GI50 [33] was > 100 µM (inactive), the GI50 [35] was > 100 µM (inactive) and the GI50 [36] was 60.3 µM (inactive). The GI50 [37] was 79.8 µM (inactive), the GI50 [58] was 42.7 µM (inactive) and the GI50 [38] was > 100 µM (inactive). For the same compound, the GI50 [39] was > 100 µM (inactive), the GI50 [40] was > 100 µM (inactive) and the GI50 [41] was > 100 µM (inactive). For the same compound, the GI50 [42] was 61.5 µM (inactive), the GI50 [43] was 39.7 µM (inactive) and the GI50 [44] was 41.5 µM (inactive). The GI50 [45] was 36.1 µM (inactive), the GI50 [46] was 77.6 µM (inactive) and the GI50 [47] was 65.2 µM (inactive). For the same compound, the GI50 [48] was > 100 µM (inactive), the GI50 [49] was 45.5 µM (inactive) and the GI50 [51] was 72.9 µM (inactive). The GI50 [52] was 48.4 µM (inactive), the GI50 [53] was > 100 µM (inactive) and the GI50 [54] was 49.3 µM.
